In brackets after ≈: the same amount, converted by molar mass. Read-outs that look alike come from different tables or passages of the source.
Experiments:
bovine cytochrome bc1 = molecular target: T1, bovine cytochrome bc1 (Bos taurus, UniProt P00157); assay: Bovine cytochrome bc1 activity assay; format: biochemical; conditions: triplicate
T1 construct: Crude mitochondria were isolated from fresh bovine hearts; from tissue; host or cells: bovine heart mitochondria
Procedure: Cytochrome bc1 was purified from mitochondria, as previously described. Crude mitochondria were isolated from fresh bovine hearts and solubilized with the addition of dodecyl-maltoside (DDM). The solubilized protein was loaded onto a 50 mL DEAE Sepharose CL6B (GE Healthcare, Uppsala, Sweden) column pre-equilibrated in and washed with three column volumes of 50 mM KPi pH 7.5, 250 mM NaCl, 0.5 mM EDTA, and 0.01% DDM. The bound protein was eluted along a linear gradient from 250 to 500 mM NaCl. Cytochrome bc1 fractions were pooled and concentrated in a centrifugal ultrafilter (MWCO. 100 kDa) and loaded onto a 120 mL Sephacryl S300 column (GE Healthcare, Uppsala, Sweden) equilibrated in and eluted at a flow rate of 0.5 mL/min with 20 mM KMOPS pH 7.2, 100 mM NaCl, 0.5 mM EDTA, 0.01% DDM. Cytochrome bc1 fractions were pooled and concentrated to 40 mg/mL. PEG fractionation with an increasing amount of PEG4000 was used to precipitate cytochrome bc1. […] The inhibitors were dissolved in DMSO at the concentration of 50 mM and 5 μM cytochrome bc1 was incubated with 50 μM inhibitor (10-fold molar excess) at 4 °C for 12 h.
The inhibitors were added to the assay without prior incubation. The reaction was initiated by the addition of 50 μM decylubiquinol (Sigma-Aldrich, St. Louis, MO, USA).

[1] = tested on: Plasmodium falciparum 3D7; conditions: drug sensitive P. falciparum 3D7 whole cells; cited from earlier work
[2] = tested on: Plasmodium falciparum TM90C2B; conditions: atovaquone resistant parasite TM90C2B; cited from earlier work
[3] = molecular target: T2, Pfbc1 (P. falciparum cytochrome bc1) (Plasmodium falciparum, UniProt Q02768); conditions: cited from earlier work
T2 sequence (Q02768 1-376): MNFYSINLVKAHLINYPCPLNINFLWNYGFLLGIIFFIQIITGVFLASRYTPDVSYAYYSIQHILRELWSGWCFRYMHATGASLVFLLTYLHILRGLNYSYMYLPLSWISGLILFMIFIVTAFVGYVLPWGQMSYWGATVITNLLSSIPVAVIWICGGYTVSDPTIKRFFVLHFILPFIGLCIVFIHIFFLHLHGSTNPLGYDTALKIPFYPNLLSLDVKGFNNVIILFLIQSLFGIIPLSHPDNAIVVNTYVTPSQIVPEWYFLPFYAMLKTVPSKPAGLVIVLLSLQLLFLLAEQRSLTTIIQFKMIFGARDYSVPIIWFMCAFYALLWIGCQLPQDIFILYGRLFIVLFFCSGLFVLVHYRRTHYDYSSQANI

[4] = parameters: method as in doi:10.1039/C5MD00062A; conditions: at pH 1; cited from earlier work
[5] = tested on: Plasmodium falciparum FCR3A strain; parameters: method as in PMID 23234553; conditions: FCR3A strain used as atovaquone-resistant parasite (footnote †); read-out: IC50 (nM) (TM90C2B); cited from earlier work
[6] = molecular target: PfNDH2 (P. falciparum mitochondrial type II NADH: ubiquinone oxidoreductase); conditions: cited from earlier work
[7] = molecular target: T2, Pfbc1 (P. falciparum cytochrome bc1); assay: Pf cytochrome bc1 enzyme inhibition; format: biochemical; conditions: at 100 nM; single point concentration only, full IC50 not available; measured in this work
Source text: Table 1 Inhibition profiles of selected antimalarial compounds against whole cells of Plasmodium falciparum (Pf) (3D7 and TM90C2B strains) and individual mitochondrial enzymes. | column: IC50 (nM) (Pfbc1) *

[8] = single point concentration only, full IC50 not available

Row | inhibition at 0.1 µM (bovine cytochrome bc1) [%] | inhibition at 1 µM (bovine cytochrome bc1) [%] | inhibition at 0.1 µM [7] [%] | Structure (SMILES) | IC50 [1] [nM] | IC50 [2] [nM] | IC50 [3] [nM] | aqueous solubility [4] [µM] | IC50 [5] [nM] | IC50 [6, 8] [nM] | IC50 [6] [nM] | IC50 (nM) (TM90C2B) [2]
1 | 22 ± 5 | 51 ± 7 | – | COc1cc2[nH]c(C)c(-c3ccc(Oc4ccc(OC(F)(F)F)cc4)cc3)c(=O)c2cc1Cl [ELQ300] | 2.2 | 1.7 | 0.56 | < 1 | – | – | – | –
2 | 65 ± 4 | 82 ± 5 | – | Cc1[nH]c(CO)c(-c2ccc(Oc3ccc(OC(F)(F)F)cc3)cc2)c(=O)c1Cl [GSK932121] | 6 | – | 7 | – | 6 | > 10000 | – | –
3 | 7 ± 1 | 61 ± 3 | – | Cc1[nH]c2ccccc2c(=O)c1-c1ccc(Cc2ccc(OC(F)(F)F)cc2)cc1 [WDH-1U-4] | 36 ± 6 | 5 ± 2 | < 10 | – | – | – | 492 | –
4 | 9 ± 2 | 72 ± 5 | 80 | COc1ccc2c(=O)c(C)c(-c3cncc(-c4ccc(OC(F)(F)F)cc4)c3)[nH]c2c1 [SCR0911] | 12 ± 3 | 7.2 | – | 7.8 (≈ 3.33 µg/mL) | – | > 1000 | – | –
5 | 81 ± 4 | 93 ± 2 | – | Cc1c(-c2ccc(Cc3ccc(OC(F)(F)F)cc3)cc2)n(O)c2ccccc2c1=O [RKA066] | 22 ± 0.4 | 217 ± 18 | 28 | – | – | – | 55 | triple-digit nanomolar
6 | 59 ± 6 | 79 ± 3 | – | Cc1[nH]c(C)c(-c2ccc(Oc3ccc(OC(F)(F)F)cc3)cc2)c(=O)c1Cl [GW844520] | 5 | – | 2 | – | 2 | > 10000 | – | –
